# Reference: US10087172B2, “Compounds and their methods of use” (AGIOS PHARMACEUTICALS, INC, priority 2012, dated 2018)
# pIC50: −log10 of the molar value.
# Biological target: T1, glutaminase (GAC) (Homo sapiens, UniProt O94925)
# T1 sequence (O94925 55-598 isoform O94925-3 limits assumed): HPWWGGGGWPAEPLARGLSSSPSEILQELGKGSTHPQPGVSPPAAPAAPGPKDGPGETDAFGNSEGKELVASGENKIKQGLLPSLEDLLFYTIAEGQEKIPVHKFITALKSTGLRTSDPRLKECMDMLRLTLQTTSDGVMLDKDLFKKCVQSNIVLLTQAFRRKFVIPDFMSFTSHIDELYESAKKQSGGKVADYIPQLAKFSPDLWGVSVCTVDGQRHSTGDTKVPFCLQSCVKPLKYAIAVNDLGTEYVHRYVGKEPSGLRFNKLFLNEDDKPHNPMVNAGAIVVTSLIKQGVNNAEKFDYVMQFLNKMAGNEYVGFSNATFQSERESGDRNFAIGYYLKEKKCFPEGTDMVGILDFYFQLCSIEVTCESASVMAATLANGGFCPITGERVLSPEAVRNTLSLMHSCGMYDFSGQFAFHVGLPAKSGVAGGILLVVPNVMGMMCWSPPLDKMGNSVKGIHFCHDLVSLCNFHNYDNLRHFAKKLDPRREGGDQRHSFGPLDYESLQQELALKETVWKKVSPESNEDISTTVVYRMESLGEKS
# Assay: Glutaminase (GAC) coupled endpoint enzymatic assay (glutamate dehydrogenase/diaphorase/resazurin, Ex544/Em590)
# Type: biochemical
# Details: inhibition of glutaminase, tested in an assay of Example A or Example B; class symbols A-E
# How it was run: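 Glutamate formed by GAC is coupled through GDH and diaphorase to resorufin fluorescence (Ex544/Em590), read after an SDS stop. Buffer pH 8.5 holds phosphate; glutamine is at Km, with 1.56 mM NAD in the enzyme mix. Compound and enzyme mix are preincubated 60 min at room temperature before substrate addition.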
smiles,measurement,value
"O=C(Cc1ccccn1)Nc1nnc([C@H]2CCC[C@H](c3nnc(NC(=O)Cc4ccccn4)s3)C2)s1 (single isomer, unassigned) [Compound 14]",pIC50,> 7.00
"COc1ccc(CC(=O)Nc2nnc([C@H]3CC[C@H](c4nnc(NC(=O)Cc5ccc(OC)cn5)s4)C3)s2)nc1 [Compound 347, N,N′-(5,5′-((1S,3S)-cyclopentane-1,3-diyl)bis(1,3,4-thiadiazole-5,2-diyl))bis(2-(5-methoxypyridin-2-yl)acetamide)]",pIC50,> 7.00
O=C(Cc1ccc2c(c1)OCO2)Nc1nnc([C@H]2CCC[C@H](c3nnc(NC(=O)Cc4ccc5c(c4)OCO5)s3)C2)s1 [Cmpd 86],pIC50,> 7.00
O=C(Cc1cncc(N2CC(F)(F)C2)n1)Nc1nnc([C@H]2CCC[C@H](c3nnc(NC(=O)Cc4cncc(N5CC(F)(F)C5)n4)s3)C2)s1 [Compound 354],pIC50,> 7.00
"N#Cc1cccc(CC(=O)Nc2nnc([C@H]3CCC[C@H](c4nnc(NC(=O)Cc5cccc(N6CC(N)C6)n5)s4)C3)s2)c1 [Compound 366, 2-(6-(3-aminoazetidin-1-yl)pyridin-2-yl)-N-(5-((1S,3S)-3-(5-(2-(3-cyanophenyl)acetamido)-1,3,4-thiadiazol-2-yl)cyclohexyl)-1,3,4-thiadiazol-2-yl)acetamide]",pIC50,> 7.00
"O=C(Cc1cccc([N+](=O)[O-])c1)Nc1nnc([C@H]2CCC[C@H](c3nnc(NC(=O)Cc4cccc([N+](=O)[O-])c4)s3)C2)s1 [Compound 69, N,N′-(5,5′-((1S,3S)-cyclohexane-1,3-diyl)bis(1,3,4-thiadiazole-5,2-diyl))bis(2-(3-nitrophenyl)acetamide)]",pIC50,> 7.00
"CC(C)(CO)C(=O)Nc1nnc([C@H]2CCC[C@H](c3nnc(NC(=O)C(C)(C)CO)s3)C2)s1 [Compound 63, N,N′-(5,5′-((1S,3S)-cyclohexane-1,3-diyl)bis(1,3,4-thiadiazole-5,2-diyl))bis(3-hydroxy-2,2-dimethylpropanamide)]",pIC50,6.00 to 6.30
"O=C(Cc1ccccn1)Nc1nnc([C@H]2CCC[C@H](c3nnc(NC(=O)[C@@H](O)c4ccccc4)s3)C2)s1 [Compound 376, (S)-2-hydroxy-2-phenyl-N-(5-((1S,3S)-3-(5-(2-(pyridin-2-yl)acetamido)-1,3,4-thiadiazol-2-yl)cyclohexyl)-1,3,4-thiadiazol-2-yl)acetamide]",pIC50,> 7.00
"O=C(Cc1ncccn1)Nc1nnc([C@H]2CCC[C@H](c3nnc(NC(=O)Cc4ncccn4)s3)C2)s1 [Compound 27, N,N′-(5,5′-((1S,3S)-cyclohexane-1,3-diyl)bis(1,3,4-thiadiazole-5,2-diyl))bis(2-(pyrimidin-2-yl)acetamide)]",pIC50,> 7.00
O=C(Cc1cccc(N2CC(F)C2)c1)Nc1nnc([C@H]2CCC[C@H](c3nnc(NC(=O)Cc4cccc(N5CC(F)C5)c4)s3)C2)s1 [Compound 348],pIC50,> 7.00
"N#Cc1cccnc1CC(=O)Nc1nnc([C@H]2CCC[C@H](c3nnc(NC(=O)Cc4ncccc4C#N)s3)C2)s1 (relative stereo) [Compound 113, N,N′-(5,5′-(trans-cyclohexane-1,3-diyl)bis(1,3,4-thiadiazole-5,2-diyl))bis(2-(3-cyanopyridin-2-yl)acetamide)]",pIC50,> 7.00
"O=C(Cc1ccccn1)Nc1nnc(CC2CCC(Cc3nnc(NC(=O)Cc4ccccn4)s3)CC2)s1 [Compound 2, N,N′-(5,5′-((1R,4R)-cyclohexane-1,4-diylbis(methylene)bis(1,3,4-thiadiazole-5,2-diyl))bis(2-(pyridin-2-yl)acetamide)]",pIC50,6.00 to 6.30
O=C(Cc1nccs1)Nc1nnc([C@H]2CCC[C@H](c3nnc(NC(=O)Cc4nccs4)s3)C2)s1 [Compound 100],pIC50,> 7.00
"O=C(Cc1cccc(N2CC(F)(F)C2)n1)Nc1nnc([C@H]2CCC[C@H](c3nnc(NC(=O)CC4CC4)s3)C2)s1 [Compound 349, 2-cyclopropyl-N-(5-((1S,3S)-3-(5-(2-(6-(3,3-difluoroazetidin-1-yl)pyridin-2-yl)acetamido)-1,3,4-thiadiazol-2-yl)cyclohexyl)-1,3,4-thiadiazol-2-yl)acetamide]",pIC50,> 7.00
"CC(C)Oc1ccccc1CC(=O)Nc1nnc([C@H]2CCC[C@H](c3nnc(NC(=O)Cc4ccccc4OC(C)C)s3)C2)s1 [Compound 92, N,N′-(5,5′-((1S,3S)-cyclohexane-1,3-diyl)bis(1,3,4-thiadiazole-5,2-diyl))bis(2-(2-isopropoxyphenyl)acetamide)]",pIC50,6.30 to 7.00
